Reference: ChEMBL document CHEMBL1148992, “KB cell culture I. Role in discovery of antitumor agents from higher plants” (1982)
≈ marks a conversion by molar mass, not a printed value.

The compounds below were run on KB (assay: Cytotoxicity against human KB cells). Details: read-out: ED50 (the source's name).
Format: functional
In the case of `COC(=O)C[C@](O)(CCCC(C)(C)O)C(=O)O[C@@H]1C(OC)=C[C@]23CCCN2CCc2cc4c(cc2[C@H]13)OCO4` [OMACETAXINE MEPESUCCINATE], the EC50 is reported as 3.9 µg/mL (≈ 7.15 µM).
`CC(=O)O[C@H]1C(=O)[C@@]2(C)[C@H]([C@H](OC(=O)c3ccccc3)[C@]3(O)C[C@H](OC(=O)[C@H](O)[C@@H](NC(=O)c4ccccc4)c4ccccc4)C(C)=C1C3(C)C)[C@]1(OC(C)=O)CO[C@@H]1C[C@@H]2O` [PACLITAXEL] was tested, and the EC50 was 8.9 µg/mL (≈ 10.4 µM).
`CN[C@H]1CCc2cc(OC)c(OC)c(OC)c2-c2ccc(OC)c(=O)cc21` [DEMECOLCINE] was tested, and the EC50 was less than 0.25 µg/mL.
`COc1cc2c(c(OC)c1OC)-c1ccc(OC)c(=O)cc1[C@@H](NC(C)=O)CC2` [COLCHICINE] gave an EC50 of 0.23 µg/mL (≈ 0.576 µM).
`COc1ccc2cc1Oc1ccc(cc1)C[C@H]1c3cc(c(OC)cc3CCN1C)Oc1c(OC)c(OC)cc3c1C(C2)N(C)CC3` (mixture of isomers) gave an EC50 of 22 µg/mL.
Compound `COc1cc(C[C@H]2c3cc(OC)c(OC)cc3CCN2C)c(Oc2cc3c(cc2OC)-c2c(OC)c(OC)cc4c2[C@H](C3)N(C)CC4)cc1OC` [THALICARPINE] has an EC50 of 3.7 µg/mL (≈ 5.31 µM).
Compound `COc1ccc(C[C@H]2C(=O)N[C@@H](C)C(=O)N(C)[C@@H]3C(=O)N(C)[C@@H](Cc4ccc(O)c(c4)Oc4ccc(cc4)[C@@H]3O)C(=O)N[C@@H](C)C(=O)N[C@@H](C)C(=O)N2C)cc1` [BOUVARDIN] has an EC50 of 8.8 µg/mL (≈ 11.4 µM).
With `CC(C)[C@]12O[C@H]1[C@@H]1O[C@]13[C@]1(O[C@H]1C[C@H]1C4=C(C(=O)OC4)[C@@H](O)C[C@@]13C)[C@@H]2O` [TRIPDIOLIDE] the EC50 was 2.8 µg/mL (≈ 7.44 µM).
Work on `COc1cc2cc(c1Cl)N(C)C(=O)C[C@H](OC(=O)[C@H](C)N(C)C(C)=O)[C@]1(C)O[C@H]1[C@H](C)[C@@H]1C[C@@](O)(NC(=O)O1)[C@H](OC)/C=C/C=C(\C)C2` [MAYTANSINE] yielded an EC50 of 0.51 µg/mL (≈ 0.737 µM).
For `COc1ccc2cc1Oc1ccc(cc1)C[C@H]1c3cc(c(OC)cc3CCN1C)Oc1c(OC)c(OC)cc3c1[C@@H](C2)N(C)CC3`, the EC50 was 10 µg/mL (≈ 16.1 µM).
For `COc1cc([C@@H]2c3cc4c(cc3[C@H](O)[C@H]3COC(=O)[C@H]23)OCO4)cc(OC)c1OC` [PODOFILOX], the EC50 was less than 1 µg/mL.
With `COc1cc2c3c(c4ccc(OC)c(OC)c4c2cc1OC)CN1CCC[C@@H]1C3` [TYLOCREBRINE] the EC50 was 0.013 µg/mL (≈ 0.033 µM).
With `CC[C@@]1(O)C(=O)OCc2c1cc1n(c2=O)Cc2cc3ccccc3nc2-1` [CAMPTOTHECIN] the EC50 was 2.3 µg/mL (≈ 6.6 µM).
`COC(=O)[C@@]12OC[C@]34[C@H]([C@@H](O)[C@@H]1O)[C@@]1(C)CC(=O)C(O)=C(C)[C@@H]1C[C@H]3OC(=O)[C@H](OC(=O)/C=C(\C)C(C)C)[C@@H]24` [BRUCEANTIN] showed an EC50 of 17 µg/mL (≈ 31 µM).
Compound `CC(=O)O[C@H]1C(=O)O[C@@H]2C[C@H]3C(C)=CC(=O)[C@@H](O)[C@]3(C)[C@H]3[C@]4(O)OC[C@]32[C@@H]1[C@@H](C)[C@H]4O` [HOLACANTHONE] has an EC50 of 6.8 µg/mL (≈ 15.6 µM).
`Cc1c2ccncc2c(C)c2c1[nH]c1ccccc12` [ELLIPTECINE] was tested, and the EC50 was 0.36 µg/mL (≈ 1.46 µM).
Compound `COc1ccc2[nH]c3c(C)c4ccncc4c(C)c3c2c1` has an EC50 of 8.7 µg/mL (≈ 31.5 µM).
Work on `CC[C@H]1CN2CCc3cc(OC)c(OC)cc3[C@@H]2C[C@@H]1C[C@H]1NCCc2cc(OC)c(OC)cc21` [EMETINE] yielded an EC50 of less than 1 µg/mL.
For `CC(C)[C@]12O[C@H]1[C@@H]1O[C@]13[C@]1(O[C@H]1C[C@H]1C4=C(CC[C@@]13C)C(=O)OC4)[C@@H]2O` [TRIPTOLIDE], the EC50 was 2.6 µg/mL (≈ 7.21 µM).
For `C[C@H]1C(=O)O[C@@H]2CCN3CC=C(COC(=O)[C@](C)(O)[C@]1(C)O)[C@H]23` [MONOCROTALINE], the EC50 was greater than 100 µg/mL.
`CC[C@]1(O)C[C@H]2CN(CCc3c([nH]c4ccccc34)[C@@](C(=O)OC)(c3cc4c(cc3OC)N(C=O)[C@H]3[C@@](O)(C(=O)OC)[C@H](OC(C)=O)[C@]5(CC)C=CCN6CC[C@]43[C@@H]65)C2)C1` [VINCRISTINE] showed an EC50 of 1.3 µg/mL (≈ 1.58 µM).
In the case of `COc1cc2c[n+](C)c3c4cc5c(cc4ccc3c2cc1OC)OCO5.[Cl-]` [NITIDINE CHLORIDE], the EC50 is reported as 4.3 µg/mL.

These compounds were tested on P388 (assay: In vivo cytotoxicity against mouse P388 cells relative to control). Details: not given.
Format: functional
Compound `COc1cc2c(ccc3c4cc(OC)c(OC)cc4c[n+](C)c23)cc1O.[Cl-]` [FAGARONINE] has a T/C of 270%.
With `CC(C)[C@](O)(C(=O)OCC1=CC[N+]2([O-])CC[C@@H](O)[C@@H]12)[C@H](C)O` (stereo partly specified) [INDICINE N-OXIDE] the T/C was 262%.
With `Cc1cc2c(C(C)C)c(O)c(O)c(C=O)c2c(O)c1-c1c(C)cc2c(C(C)C)c(O)c(O)c(C=O)c2c1O` [GOSSYPOL] the T/C was 150%.
`COc1cc2c[n+](C)c3c4cc(OC)c(OC)cc4ccc3c2cc1OC` gave a T/C of 200%.
